From patent publication US20250170110A1, “LYMPHATIC TARGETED ANTI-COAGULANT FOR THE PREVENTION OF LYMPHATIC THROMBOSIS” (THE TRUSTEES OF THE UNIVERSITY OF PENNSYLVANIA, priority 2022, published 2025)

System: gut lymphatic clotting
Assay: lymphatic clots in mice with induced deletion of lymphatic endothelial thrombomodulin (THBD)
Assay type: in vivo
Settings: oral warfarin in water, 3 weeks after induction
From the text: FIGS. 7A-7C show oral delivery of warfarin prevents lymphatic clots in mouse model of lymphothrombosis. […] P-values are indicated by asterisks as follows: ***p<0.001.
However, dosing with existing antithrombotic drugs will confer systemic anticoagulation, with established significant risks of bleeding throughout the body, including in the gut and brain. […] Therefore, there is a clear need for a functional antithrombotic drug that can be delivered and act preferentially to the gut lymphatics at a therapeutic dose. In addition, the volume of lymphatic fluid in the gut is much less than the volume of blood in the body, which means that a therapeutic dose of drug directly to the gut lymphatics will be massively diluted once it reaches the blood stream to well below therapeutic levels, thereby preventing systemic anticoagulation and inappropriate bleeding.

CC(=O)CC(c1ccccc1)c1c(O)c2ccccc2oc1=O (stereo not shown) [warfarin]
lymphatic clotting (fibrin positive lymphatic vessels): prevented lymphatic clotting
